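48-hour exposure; five concentrations; linearly interpolated endpoints. Here, GI50 denotes the concentration required for 50% inhibition of growth.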 Active and inactive are the calls of the source. No stated cut-off is given here; in the data, active = GI50 up to about 1.1 µM and inactive = higher.
Tests used:
Assay in all cases: NCI-60 cell line screen, 48 h
SK-MEL-28 = tested on: SK-MEL-28
COLO 205 = tested on: COLO 205
OVCAR-3 = tested on: OVCAR-3
CCRF-CEM = tested on: CCRF-CEM
U-251 = tested on: U-251
OVCAR-5 = tested on: OVCAR-5
MOLT-4 = tested on: MOLT-4
A498 = tested on: A498
HCT-116 = tested on: HCT-116
OVCAR-8 = tested on: OVCAR-8
HT-29 = tested on: HT-29
UO-31 = tested on: UO-31
SNB-19 = tested on: SNB-19
NCI-H460 = tested on: NCI-H460
TK-10 = tested on: TK-10
SNB-75 = tested on: SNB-75
SW-620 = tested on: SW-620
SK-MEL-5 = tested on: SK-MEL-5
CAKI-1 = tested on: CAKI-1
HOP-62 = tested on: HOP-62
K562 = tested on: K562
SK-OV-3 = tested on: SK-OV-3
HOP-92 = tested on: HOP-92
KM-20L2 = tested on: KM-20L2
HL-60 = tested on: HL-60
HCC 2998 = tested on: HCC 2998
SK-MEL-2 = tested on: SK-MEL-2
786-0 = tested on: 786-0
OVCAR-4 = tested on: OVCAR-4
SF-295 = tested on: SF-295
M14 = tested on: M14
NCI-H522 = tested on: NCI-H522
RPMI-8226 = tested on: RPMI-8226
RXF 393 = tested on: RXF 393
EKVX = tested on: EKVX
IGROV-1 = tested on: IGROV-1
KM12 = tested on: KM12
UACC-62 = tested on: UACC-62
UACC-257 = tested on: UACC-257
A549 = tested on: A549
DU-145 = tested on: DU-145
Hs-578T = tested on: Hs-578T
NCI-H226 = tested on: NCI-H226
MCF7 = tested on: MCF7
SF-539 = tested on: SF-539
HCT-15 = tested on: HCT-15
SN12C = tested on: SN12C
PC-3 = tested on: PC-3
SF-268 = tested on: SF-268
BT-549 = tested on: BT-549
MDA-N = tested on: MDA-N
T47D = tested on: T47D
ACHN = tested on: ACHN
LOX IMVI = tested on: LOX IMVI
MDA-MB-435 = tested on: MDA-MB-435
SR = tested on: SR
NCI-H23 = tested on: NCI-H23
MDA-MB-231 = tested on: MDA-MB-231
Malme-3M = tested on: Malme-3M
NCI/ADR-RES = tested on: NCI/ADR-RES

Measured: GI50

c1ccncc1
inactive: SK-MEL-28 > 100000 nM | COLO 205 > 100000 nM | OVCAR-3 > 100000 nM | CCRF-CEM > 100000 nM | U-251 > 100000 nM | OVCAR-5 > 100000 nM | MOLT-4 > 100000 nM | A498 > 100000 nM | HCT-116 > 100000 nM | OVCAR-8 > 100000 nM | HT-29 > 100000 nM | UO-31 > 100000 nM | SNB-19 > 100000 nM | NCI-H460 > 100000 nM | TK-10 > 100000 nM | SNB-75 > 100000 nM | SW-620 > 100000 nM | SK-MEL-5 > 100000 nM | CAKI-1 > 100000 nM | HOP-62 > 100000 nM | K562 > 100000 nM | SK-OV-3 > 100000 nM | HOP-92 > 100000 nM | KM-20L2 > 100000 nM | HL-60 > 100000 nM | HCC 2998 > 100000 nM | SK-MEL-2 > 100000 nM | 786-0 > 100000 nM | OVCAR-4 > 100000 nM | SF-295 > 100000 nM | M14 > 100000 nM | NCI-H522 > 100000 nM | RPMI-8226 > 100000 nM | RXF 393 > 100000 nM | EKVX > 100000 nM | IGROV-1 > 100000 nM | KM12 > 100000 nM | UACC-62 > 100000 nM | UACC-257 > 100000 nM

Cc1cccc2c(NCCCN(C)C)c3c([N+](=O)[O-])ccc(C)c3nc12
43.5 nM: HCT-15
active: COLO 205 80.2 nM | OVCAR-3 109 nM | A549 101 nM | CCRF-CEM 423 nM | U-251 147 nM | DU-145 88.7 nM | OVCAR-5 264 nM | MOLT-4 17.8 nM | Hs-578T 439 nM | NCI-H226 194 nM | A498 < 10 nM | HCT-116 100 nM | MCF7 < 16.1 nM | OVCAR-8 206 nM | SF-539 263 nM | HT-29 80.9 nM | SN12C 221 nM | PC-3 49.4 nM | SF-268 198 nM | UO-31 216 nM | SNB-19 192 nM | NCI-H460 < 24.1 nM | TK-10 252 nM | SNB-75 186 nM | SW-620 65.9 nM | BT-549 256 nM | SK-MEL-5 82 nM | CAKI-1 200 nM | HOP-62 47 nM | K562 115 nM | SK-OV-3 278 nM | MDA-N 196 nM | HOP-92 91.6 nM | T47D 87.9 nM | HL-60 203 nM | HCC 2998 < 25.5 nM | SK-MEL-2 132 nM | 786-0 68.9 nM | OVCAR-4 62.8 nM | ACHN 90.8 nM | SF-295 68.9 nM | M14 132 nM | LOX IMVI 197 nM | MDA-MB-435 191 nM | SR < 15.4 nM | NCI-H522 < 32.6 nM | RPMI-8226 190 nM | RXF 393 64.7 nM | NCI-H23 34 nM | EKVX 85.5 nM | MDA-MB-231 217 nM | IGROV-1 57.4 nM | KM12 103 nM | Malme-3M 175 nM | NCI/ADR-RES 337 nM | UACC-62 144 nM | UACC-257 192 nM
inactive: SK-MEL-28 2320 nM

From ChEMBL document CHEMBL1201862, “PubChem BioAssay data set” (2004)
